Laboratory results reported in PMC7948479, “Allostery in the nitric oxide dioxygenase mechanism of flavohemoglobin” (The Journal of Biological Chemistry, 2020).

Legend:
[1] = molecular target: flavoHb heme (Fe^2+ / Fe^3+) (Escherichia coli, UniProt P24232, Q53H); settings: HisE7 variant; 100 μM CO
Experimental: (§1) FAD and heme reduction were monitored by following the changes in flavoHb absorbance at 460 and 430 nm, respectively, with stopped-flow rapid mixing of 50 μM NADH and 10 μM flavoHb in N2-purged buffer ([4]). O2, NO, and CO association rate constants were determined by photolyzing 50 μM of the respective ferrous flavoHb species with a 300-ns pulse from a 577-nm laser and by spectrophotometrically following ligand reassociation in O2-, NO-, or CO-saturated buffer unless otherwise indicated ([4], [5]). […] Binding of NO was measured by the change of absorbance at 422 nm by applying a difference extinction coefficient of 0.040 μM^−1 cm^−1. O2 and CO dissociation rate constants were determined by stopped-flow rapid mixing with either CO or NO displacement ([4], [5]). The cuvette path length was 1.0 cm. All reactions were at 20 °C in filtered 100 mM sodium phosphate buffer, pH 7.0, containing 0.3 mM EDTA. Catalase (1000 U/ml) was included in all reactions containing O2 to scavenge H2O2 produced by the NADH oxidase activity of flavoHb and to regenerate O2.

[2] = molecular target: flavoHb heme (Fe^2+ / Fe^3+) (Escherichia coli, UniProt P24232, Y29F); settings: PheB10 variant; 100 μM CO
Experimental: as §1

[3] = molecular target: flavoHb heme (Fe^2+ / Fe^3+) (Escherichia coli, UniProt P24232)
Experimental: as §1

[4] = TMAO reductase activity; type: biochemical; settings: CO 50 μM; AsnF7 variant
[5] = system: E. coli flavoHb-NOD; settings: read-out: Ki(CO); cited from earlier work
[6] = molecular target: E. coli flavoHb-NOD (Escherichia coli, UniProt P24232, K84N); settings: 1000 U of catalase
Experimental: (§2) NOD activity was measured amperometrically in 100 mM phosphate buffer, pH 7.0, containing 0.3 mM EDTA, 100 μg/ml bovine serum albumin (BSA) (Fraction V), 100 μM NADH, 0.1 μM FAD with NO, O2, and N2 mixtures added as described ([4], [72]). NADH oxidase activity was followed spectrophotometrically at 340 nm in a 1.0-ml cuvette containing 90 mM Tris chloride buffer, pH 8.2, 100 μM NADH, 200 μM O2, 0.1 μM FAD, 100 μg/ml BSA, and 0.3 mM EDTA and incubated at 37 °C. Cytochrome b5 reductase activity was assayed at 37 °C by following the rate of absorbance increase at 555 nm in a 1.0-ml reaction buffered with 90 mM Tris chloride, pH 8.2, and containing 10 μM ferric cytochrome b5, 200 μM O2, 20 μM NADH, 0.1 μM FAD, 100 μg/ml BSA, and 0.3 mM EDTA. TMAO reductase activity was assayed by following the absorbance decrease at 340 nm in a 1.0-ml anaerobic reaction containing 12 U Aspergillus niger glucose oxidase, 5 mM glucose, 260 U catalase, 400 mM TMAO, 100 μM NADH, 0.1 μM FAD, 100 μg/ml BSA, and 0.3 mM EDTA in 90 mM Tris chloride pH 8.2 and incubated at 37 °C. Ngb reductase activity was assayed by following the absorbance increase at 424 nm in a 1.0-ml anaerobic reaction containing 12 U glucose oxidase, 5 mM glucose, 260 U catalase, 5 μM Ngb, 50 μM NADH, 0.1 μM FAD, 100 μg/ml BSA, and 0.3 mM EDTA in 90 mM Tris chloride buffer, pH 8.2, and incubated at 37 °C. Methyl viologen reductase activity was assayed by following the formation of the blue cation radical at 603 nm and by applying an extinction coefficient of 13,300 M^−1 cm^−1 in a 1.0-ml anaerobic reaction buffered with 10 mM potassium phosphate, pH 7.0, and containing 12 U glucose oxidase, 5 mM glucose, 260 U catalase, 100 μM NADH, 0.1 μM FAD, 100 μg/ml BSA, 0.3 mM EDTA, and 200 mM sodium chloride and incubated at 37 °C. NO reductase activity was assayed amperometrically at 37 °C in a 1.0-ml anaerobic reaction containing 2 μM NO, 100 μM NADH, 0.1 μM FAD, 12 U glucose oxidase, 5 mM glucose, 260 U catalase, 100 μg/ml BSA, and 0.3 mM EDTA buffered with 10 mM potassium phosphate pH 7.0. CO effects were tested at a final concentration of 50 μM as diluted from a 1 mM stock in water. All activities are reported relative to the heme content of flavoHb.

[7] = molecular target: T1, flavoHb-NOD (Escherichia coli, UniProt P24232); experiment: H2O2 sensitivity of the flavoHb-NOD; type: biochemical; settings: for protection of flavoHb-NOD against H2O2: resting state, 2 mM ascorbate or 10 µM miconazole
T1 construct: made in house; host or cells: E. coli hmp deletion strain AG103 carrying pUC19hmp
Experimental: Figure S5. H2O2 sensitivity of the flavoHb-NOD. NOD activity of flavoHb is rapidly lost upon exposure to H2O2 (panel A), and heme absorbance decreases with H2O2 exposure (panel B). The peroxidizable substrate ascorbate and the heme ligand miconazole (6) afford protection thus […]
(A) FlavoHb (0.1 µM heme) […]
was exposed to 0 (○), 50 (◼) or 200 µM H2O2 (●). Catalase (1000 U/mL) was added at various times to terminate reactions, and NOD activity was measured as described under Experimental Procedures. (B) Ferric flavoHb (5 µM heme) was exposed to 200 µM H2O2, and spectra were recorded at 2 min intervals (solid lines) or after a 10 min exposure in the presence of 2 mM ascorbate (dashed line) or 10 µM miconazole (dotted line). Reactions were at 37°C in 50 mM potassium phosphate buffer, pH 7.8, containing 0.1 mM EDTA. Error bars represent the S.D. of […]
(1 picture or pasted object on this page, not shown here)

[8] = molecular target: E. coli flavoHb-NOD (Escherichia coli, UniProt P24232); type: biochemical; set-up: made in house; host or cells: E. coli hmp deletion strain AG103 carrying pUC19hmp
Source text: We have formulated a steady-state velocity equation for the catalytic cycle with the activating trigger step (KT) (Equation 1).(1) v= Vmax(a) where a=([NO]^2[O2]^2/K1K2K3KTK4)/(1+([O2]/K1)+([O2]^2/K1K2)+(([O2]^2[NO])/K1K2K3)+(([O2]^2[NO])/K1K2K3KT)+(([O2]^2[NO]^2)/K1K2K3KTK4))
(2) v= Vmax(a)(b) where b=[NO]/(K3+([NO](1+((K2/[O2])(1+([NO]/Ki(NO)))))))
In addition, we have introduced a factor and equilibrium constant Ka(O2) for rare situations in which O2 causes an additional NO-independent activation of catalysis possibly by occupying unique binding sites or cavities (Equation 5).
as §2
Rate constants were estimated from the model kinetic equation using Python programming with successive approximations to optimize fits with varying NO and O2 concentrations. Vmax, K1, K2, KT, and Kii(NO) values were treated as independent variables for a given flavoHb while allowing K3, K4, and Ki(NO) to vary over limited ranges with varying O2 concentration. Kii(NO) was estimated from NO inhibition at saturating O2 concentrations.

[C-]#[O+] [CO, reference compound]
inhibition of O2 migration and binding in the slow phase [1]: ~50% | inhibition of O2 migration and binding in the slow phase [2]: ~50% | inhibition of fast phase of O2 rebinding [3]: ~10% | inhibition of slow phase of O2 rebinding [3]: 86% | inhibition of TMAO reduction [4]: ~90% | Ki [5]: ~1000 nM

Catalase
protection of AsnF7 NOD activity from inactivation [6]: modest protection

O=C1O[C@H]([C@@H](O)CO)C(O)=C1O [ascorbate]
protection of flavoHb-NOD against H2O2 [7]: protect

Clc1ccc(COC(Cn2ccnc2)c2ccc(Cl)cc2Cl)c(Cl)c1 (stereo not shown) [miconazole]
protection of flavoHb-NOD against H2O2 [7]: protect

OO [H2O2]
effect of H2O2 on flavoHb-NOD activity ([7]; 50 or 200 µM H2O2): sensitive

O=O [O2]
inhibition by O2 with respect to NO [8]: no competitive inhibition | selectivity for O2 over N2 [8]: greater than 80 fold

nitric oxide [NO]
inhibition of NOD activity by NO ([8]; 1:100 ratio of NO to O2, reversible, competitive with O2): roughly 50%
